Target: WIL-FL (Homo sapiens, UniProt P01721)
Test: Unlabeled LC Protease Sensitivity Assay (proteinase K)
Type: biochemical
Conditions: small molecule 10 μM, WIL-FL 5 μM, proteinase K 50 nM, 2 hours at 37° C.
How it was run: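 WIL-FL light chain (5 μM) in PBS pH 7.4 + 0.02% Pluronic F-127 digested with proteinase K (50 nM) for 2 h at 37 °C with 10 μM compound (1% DMSO). Intact WIL-FL quantified by size-exclusion UPLC (A280). Fold protection = (A_compound−A_vehicle)/(A_no_protease−A_vehicle) from peak areas.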

Protection (fold protection of LC from protease)	SMILES
C (C ≥ 0.6)	CCN(CC)c1ccc2c(C)c(CCOC(=O)NCc3cccnc3)c(=O)oc2c1 [Compound 89, 2-(7-(diethylamino)-4-methyl-2-oxo-2H-chromen-3-yl)ethyl (pyridin-3-ylmethyl)carbamate]
A (A < 0.3))	C#CCN(CCC=C)c1ccc2c(C)cc(=O)oc2c1 [Compound 263, 7-(but-3-en-1-yl(prop-2-yn-1-yl)amino)-4-methyl-2H-chromen-2-one]
A (A < 0.3))	CCN(CCF)c1ccc2c(C)cc(=O)oc2c1 [Compound 273, 7-(ethyl(2-fluoroethyl)amino)-4-methyl-2H-chromen-2-one]
B (3 ≤ B < 0.6)	CCN(CC)c1ccc2c(C)c(CCOC(=O)NCc3cnccn3)c(=O)oc2c1 [Compound 91, 2-(7-(diethylamino)-4-methyl-2-oxo-2H-chromen-3-yl)ethyl (pyrazin-2-ylmethyl)carbamate]
A (A < 0.3))	Cc1cc(=O)oc2cc(N3CCCC3)ccc12 [Compound 36, 4-methyl-7-(pyrrolidin-1-yl)-2H-chromen-2-one]
C (C ≥ 0.6)	CCN(CC)c1ccc2c(C)c(CCOC(=O)NCc3cccc(-c4c[nH]cn4)c3)c(=O)oc2c1 [Compound 141, 2-(7-(diethylamino)-4-methyl-2-oxo-2H-chromen-3-yl)ethyl (3-(1H-imidazol-4-yl)benzyl)carbamate]
B (3 ≤ B < 0.6)	CCN(CC)c1ccc2c(C)c(CCOC(=O)NCc3cccc(C(=O)O)c3)c(=O)oc2c1 [Compound 123, 3-((((2-(7-(diethylamino)-4-methyl-2-oxo-2H-chromen-3-yl)ethoxy)carbonyl)amino)methyl)benzoic acid]
C (C ≥ 0.6)	CCN(CC)c1ccc2c(C)c(CCN3C(=O)NC4(CCN(C(=O)c5ncc[nH]5)CC4)C3=O)c(=O)oc2c1 [Compound 177, 3-(2-(7-(diethylamino)-4-methyl-2-oxo-2H-chromen-3-yl)ethyl)-8-(1H-imidazole-2-carbonyl)-1,3,8-triazaspiro[4.5]decane-2,4-dione]
A (A < 0.3))	CCN(CC)c1ccc2c(C)c(CCOC(=O)N3CCN(c4nn[nH]n4)CC3)c(=O)oc2c1 [Compound 115, 2-(7-(diethylamino)-4-methyl-2-oxo-2H-chromen-3-yl)ethyl 4-(2H-tetrazol-5-yl)piperazine-1-carboxylate]
B (3 ≤ B < 0.6)	CCN(CC)c1ccc2c(C)c(CCOC(=O)NCc3ccco3)c(=O)oc2c1 [Compound 87, 2-(7-(diethylamino)-4-methyl-2-oxo-2H-chromen-3-yl)ethyl (furan-2-ylmethyl)carbamate]
C (C ≥ 0.6)	CCN(CC)c1ccc2c(C)c(CCNC(=O)NCc3ccccc3)c(=O)oc2c1 [Compound 278, 1-benzyl-3-(2-(7-(diethylamino)-4-methyl-2-oxo-2H-chromen-3-yl)ethyl)urea]
B (3 ≤ B < 0.6)	CCN(CC)c1ccc2c(C)c(CCN3C(=O)CNC3=O)c(=O)oc2c1 [Compound 130, 3-(2-(7-(diethylamino)-4-methyl-2-oxo-2H-chromen-3-yl)ethyl)imidazolidine-2,4-dione]
A (A < 0.3))	CCC(CC)c1ccc2c(C)cc(=O)oc2c1 [Compound 168, 4-methyl-7-(pentan-3-yl)-2H-chromen-2-one]
B (3 ≤ B < 0.6)	C#CCN(CC#C)c1ccc2c(C)cc(=O)oc2c1 [Compound 248, 7-(di(prop-2-yn-1-yl)amino)-4-methyl-2H-chromen-2-one]
A (A < 0.3))	CCN(CC)c1ccc2c(C)c(CC(=O)NCCCN(C)C)c(=O)oc2c1 [Compound 59, 2-(7-(diethylamino)-4-methyl-2-oxo-2H-chromen-3-yl)-N-(3-(dimethylamino)propyl)acetamide]
A (A < 0.3))	CCN(CC)c1ccc2c(C)c(CCN3C(=O)NC4(CCN(c5ccc(C#N)cn5)CC4)C3=O)c(=O)oc2c1 [Compound 191, 6-(3-(2-(7-(diethylamino)-4-methyl-2-oxo-2H-chromen-3-yl)ethyl)-2,4-dioxo-1,3,8-triazaspiro[4.5]decan-8-yl)nicotinonitrile]
B (3 ≤ B < 0.6)	CCN(CC)c1ccc2c(C)c(CCOC(=O)NCc3ccc(C(=O)O)cc3)c(=O)oc2c1 [Compound 119, 4-((((2-(7-(diethylamino)-4-methyl-2-oxo-2H-chromen-3-yl)ethoxy)carbonyl)amino)methyl)benzoic acid]
C (C ≥ 0.6)	CCN(CC)c1ccc2c(C)c(CCN3C(=O)NC4(CCN(c5ncccn5)CC4)C3=O)c(=O)oc2c1 [Compound 185, 3-(2-(7-(diethylamino)-4-methyl-2-oxo-2H-chromen-3-yl)ethyl)-8-(pyrimidin-2-yl)-1,3,8-triazaspiro[4.5]decane-2,4-dione]

Protection (fold protection of LC from protease)	SMILES
A (A < 0.3))	C#CCN(CCCF)c1ccc2c(C)cc(=O)oc2c1 [Compound 264, 7-((3-fluoropropyl)(prop-2-yn-1-yl)amino)-4-methyl-2H-chromen-2-one]
B (3 ≤ B < 0.6)	CCN(CC)c1ccc2c(C)c(CN3C(=O)CNC3=O)c(=O)oc2c1 [Compound 129, 3-((7-(diethylamino)-4-methyl-2-oxo-2H-chromen-3-yl)methyl)imidazolidine-2,4-dione]
A (A < 0.3))	CCN(CC)c1ccc2c(C)c(CCOC(=O)NCCc3cccnc3)c(=O)oc2c1 [Compound 83, 2-(7-(diethylamino)-4-methyl-2-oxo-2H-chromen-3-yl)ethyl (2-(pyridin-3-yl)ethyl)carbamate]
A (A < 0.3))	CCN(CC)c1ccc2c(CCCOC(=O)NCc3cccc(C(N)=O)c3)cc(=O)oc2c1 [Compound 302, 3-(7-(diethylamino)-2-oxo-2H-chromen-4-yl)propyl (3-carbamoylbenzyl)carbamate]
A (A < 0.3))	CCN(CC)c1ccc2c(C)c(CCOC(=O)NCc3cccc(CCC(=O)OC)c3)c(=O)oc2c1 [Compound 310, Methyl 3-(3-((((2-(7-(diethylamino)-4-methyl-2-oxo-2H-chromen-3-yl)ethoxy)carbonyl)amino)methyl)phenyl)propanoate]
A (A < 0.3))	CCC(Oc1ccc2c(C)cc(=O)oc2c1)c1ccccc1 (stereo not shown) [Compound 41, 4-methyl-7-(1-phenylpropoxy)-2H-chromen-2-one]
B (3 ≤ B < 0.6)	CCN(CC)c1ccc2c(C)c(CCOC(=O)NCc3cccc(-c4cncnc4)c3)c(=O)oc2c1 [Compound 156, 2-(7-(diethylamino)-4-methyl-2-oxo-2H-chromen-3-yl)ethyl (3-(pyrimidin-5-yl)benzyl)carbamate]
A (A < 0.3))	CCN(CC)c1ccc2c(CCCOC(=O)NCc3ccccc3)cc(=O)oc2c1 [Compound 300, 3-(7-(diethylamino)-2-oxo-2H-chromen-4-yl)propyl benzylcarbamate]
A (A < 0.3))	Cc1cc(=O)oc2cc(NCC#N)ccc12 [Compound 269, 2-((4-methyl-2-oxo-2H-chromen-7-yl)amino)acetonitrile]
B (3 ≤ B < 0.6)	CCN(CC)c1ccc2c(C)c(CCN3C(=O)NC4(CCN(C(=O)c5ccc[nH]c5=O)C4)C3=O)c(=O)oc2c1 (stereo not shown) [Compound 182, 3-(2-(7-(diethylamino)-4-methyl-2-oxo-2H-chromen-3-yl)ethyl)-7-(2-oxo-1,2-dihydropyridine-3-carbonyl)-1,3,7-triazaspiro[4.4]nonane-2,4-dione]
A (A < 0.3))	Cc1cc(=O)oc2cc(C(=O)Nc3cc(Cl)c(O)c(Cl)c3)ccc12 [Compound 229, N-(3,5-dichloro-4-hydroxyphenyl)-4-methyl-2-oxo-2H-chromene-7-carboxamide]
B (3 ≤ B < 0.6)	CCN(CC)c1ccc2c(C)c(CCNC(=O)NCc3cccc(CCC(=O)OC)c3)c(=O)oc2c1 [Compound 308, Methyl 3-(3-((3-(2-(7-(diethylamino)-4-methyl-2-oxo-2H-chromen-3-yl)ethyl)ureido)methyl)phenyl)propanoate]
A (A < 0.3))	CCN(CC)c1ccc2c(C)c(CCC(=O)NCCc3ccccc3F)c(=O)oc2c1 [Compound 71]
A (A < 0.3))	CCN(CC)c1ccc2c(C)c(CCOC(=O)N3CC(F)(F)C3)c(=O)oc2c1 [Compound 108, 2-(7-(diethylamino)-4-methyl-2-oxo-2H-chromen-3-yl)ethyl 3,3-difluoroazetidine-1-carboxylate]
B (3 ≤ B < 0.6)	CCN(CC)c1ccc2c(C)c(CCN3C(=O)NC4(CCN(C(=O)c5cnccn5)CC4)C3=O)c(=O)oc2c1 [Compound 212, 3-(2-(7-(diethylamino)-4-methyl-2-oxo-2H-chromen-3-yl)ethyl)-8-(pyrazine-2-carbonyl)-1,3,8-triazaspiro[4.5]decane-2,4-dione]
A (A < 0.3))	CCN(CC)c1ccc2c(C)c(CCNC(=O)NCc3ccncn3)c(=O)oc2c1 [Compound 294, 1-(2-(7-(diethylamino)-4-methyl-2-oxo-2H-chromen-3-yl)ethyl)-3-(pyrimidin-4-ylmethyl)urea]
A (A < 0.3))	CCN(Cc1ccccc1)c1ccc2c(C)cc(=O)oc2c1 [Compound 35, 7-(benzyl(ethyl)amino)-4-methyl-2H-chromen-2-one]
A (A < 0.3))	Cc1cc(=O)oc2cc(NCc3ccccc3)ccc12 [Compound 28, 7-(benzylamino)-4-methyl-2H-chromen-2-one]

SMILES	Protection (fold protection of LC from protease)
CCC(C)Oc1ccc2c(C)cc(=O)oc2c1 (stereo not shown) [Compound 32, 7-(sec-butoxy)-4-methyl-2H-chromen-2-one]	A (A < 0.3))
